Literature values as cited in patent US20090054305A1, “Mixtures of Amylin and Insulin” (Novo Nordisk A/S, priority 2006, published 2009).
Ends that are not written are not given here.

Details: compared to human amylin

Substance | solubility and stability characteristics
^18Arg^25, 28Pro-h-amylin | more desirable solubility and stability characteristics
^25Pro^26Val^28, 29Pro-h-amylin | more desirable solubility and stability characteristics

Details: treated test animals, e.g. provoking marked hyperlactemia followed by hyperglycemia

Substance | amylin activity in vivo
^18Arg^25, 28Pro-h-amylin | amylin activity in vivo
^28Pro-h-amylin | amylin activity in vivo
des-^1Lys-h-amylin (CNTATCATQRLANFLVHSSNNFGAILSSTNVGSNTY; not fully specified (C-terminus, bridges); ends and bridges not checked; UniProt P10997 34-70, looked up, variant K1*) [human amylin analog where the lysine in position 1 is lacking] | amylin activity in vivo
des-^1Lys^18Arg^25, 28Pro-h-amylin | amylin activity in vivo
